Assay results: patent publication US20230013419A1, “ANALOGUES OF 3-(5-METHYL-1,3-THIAZOL-2-YL)-N-{(1R)-1-[2-(TRIFLUORO-METHYL)PYRIMIDIN-5-YL]ETHYL}BENZAMIDE” (Bayer Aktiengesellschaft, priority 2019, published 2023)
Converted amounts (≈) assume the structure as drawn. “And” between values parts separate entries of the source, which are not always exact repeats. Equal values may be shown once.

Tests used:
[1] = In vitro metabolic stability in human liver microsomes; type: in vitro ADME; settings: for CLblood: hepatic in vivo blood clearance calculated from half-life in human liver microsomes, 1 μM, well-stirred model; for metabolic stability compared to example 11 of WO2016/091776 A1: human liver microsomes; for Fmax: maximal oral bioavailability calculated from human liver microsome clearance
Protocol: Examples were tested for its metabolic stability in human liver microsomes. Examples were measured one or more times. When measured more than once, data from metabolic stability assays represent average values or median values calculated utilizing data sets obtained from testing of one or more synthetic batch.
In vitro metabolic stability was determined by incubating a solution of test compounds in dimethylsulfoxide (DMSO) and acetonitrile at 1 μM in a suspension of liver microsomes in 100 mM phosphate buffer, pH7.4 (NaH2PO4×H2O+Na2HPO4×2H2O) and at a protein concentration of 0.5 mg/mL at 37° C. The microsomes were activated by adding a co-factor mix containing 8 mM Glucose-6-Phosphat, 4 mM MgCl2; 0.5 mM NADP and 1 IU/ml G-6-P-Dehydrogenase in phosphate buffer, pH 7.4. The metabolic assay was started shortly afterwards by adding the test compound to the incubation at a final volume of 1 mL. Organic solvent was limited to ≤0.01% dimethylsulfoxide (DMSO) and ≤1% acetonitril. During incubation, the microsomal suspensions were continuously shaken at 580 rpm and aliquots were taken at 2, 8, 16, 30, 45 and 60 min, to which equal volumes of cold methanol were immediately added. Samples were frozen at −20° C. over night, subsequently centrifuged for 15 minutes at 3000 rpm and the supernatant was analyzed with an Agilent 1200 HPLC-system with LCMS/MS detection.
The half-life of a test compound was determined from the concentration-time plot. From the half-life the intrinsic clearances were calculated. Together with the additional parameters liver blood flow, specific liver weight and microsomal protein content the hepatic in vivo blood clearance (CL) and the maximal oral bioavailability (Fmax) were calculated for the different species. The hepatic in vivo blood clearance (CLblood) and the maximal oral bioavailability (Fmax) was calculated using the following formulae: CL′intrinsic [ml/(min*kg)]=kel [1/min]/((mg protein/volume of incubation [ml])*fu,inc)*(mg protein/liver weight [g])*(specific liver weight [g liver/kg body weight]); CLblood well-stirred [L/(h*kg)]=(QH [L/(h*kg)]*fu,blood*CL′intrinsic [L/(h*kg)])/(QH [L/(h*kg)]+fu,blood*CL′intrinsic [L/(h*kg)]); Fmax=1−CLblood/QH and using the following parameter values: QH (Liver blood flow): 1.32 L/h/kg (human), 2.1 L/h/kg (dog), 4.2 L/h/kg (rat); specific liver weight: 21 g/kg (human), 39 g/kg (dog), 32 g/kg (rat); microsomal protein content: 40 mg/g. fu,inc and fu,blood is taken as 1 with fu,inc being the unbound fraction (ie the non-protein bound fraction) in the incubation experiment, and fu,blood being the unbound fraction in blood.

[2] = High throughput aqueous solubility in phosphate buffer pH 6.5; type: physicochemical; settings: for solubility at 24 h: aqueous buffer, kinetic from dmso stock, phosphate buffer pH 6.5, 1% DMSO, 24 hrs at room temperature; for solubility compared to example 11 of WO2016/091776 A1: aqueous, pH 6.5
Protocol: Examples were tested for its solubility in aqueous media (pH 6.5). Examples were synthesized one or more times in accordance with the above-described protocols. When synthesized more than once, data from solubility assays represent average values or median values calculated utilizing data sets obtained from testing of one or more synthetic batch.
The high throughput screening method to determine aqueous drug solubility is based on Thomas Onofrey and Greg Kazan, Performance and correlation of a 96-well high throughput screening method to determine aqueous drug solubility, Millipore Corporation Application Note, 2003; Lit. No. AN1731EN00.
The assay was run in a 96-well plate format. Each well was filled with an individual compound.
All pipetting steps were performed using a robot platform.
100 μl of a 10 mmolar solution of drug in DMSO were concentrated by vacuum centrifugation and resolved in 10 μl DMSO. 990 μl phosphate buffer pH 6.5 were added. The content of DMSO amounts to 1%. The multititer plate was put on a shaker and mixed for 24 hrs at room temperature. 150 μl of the suspension were transferred to a filtration plate. […] A second microtiter plate with 20 μl of a 10 mM solution of drug in DMSO served for calibration. Two concentrations ([…]) were prepared by dilution in DMSO/water 1:1 and used for calibration. Filtrate and calibration plates were quantified by HPLC-MS/MS.
Chromatographic conditions were as follows:
HPLC column: Ascentis Express C18 4.6×30 mm 2.7 μm
Mobile phase: A: Water/0.05% HCOOH • B: Acetonitrile/0.05% HCOOH • 0 min→95% A 5% B • 0.75 min→5% A 95% B • 2.75 min→5% A 95% B • 2.76 min→95% A 5% B • 3 min→95% A 5% B
The areas of sample- and calibration injections were determined by using mass spectrometry software (AB SCIEX: Discovery Quant 2.1.3. and Analyst 1.6.1). The solubility value was obtained by interpolation from the calibration curve.

human P2X3 receptor = molecular target: T1, human P2X3 receptor (Homo sapiens, UniProt P56373); assay: Cellular in vitro assay for determination of P2X3 receptor activity (CHO cells, photina luminescence, agonist alpha-beta-methylene-ATP); type: cell-based; settings: antagonist activity at human P2X3 receptors, recombinant CHO cells, alpha-beta-methylene-ATP at EC50; read-out: Target IC50
T1 construct: expressed in transfected cells; host or cells: CHO (Chinese hamster ovary) cells, stably co-transfected with mitochondrial photina
T1 sequence (P56373 1-397): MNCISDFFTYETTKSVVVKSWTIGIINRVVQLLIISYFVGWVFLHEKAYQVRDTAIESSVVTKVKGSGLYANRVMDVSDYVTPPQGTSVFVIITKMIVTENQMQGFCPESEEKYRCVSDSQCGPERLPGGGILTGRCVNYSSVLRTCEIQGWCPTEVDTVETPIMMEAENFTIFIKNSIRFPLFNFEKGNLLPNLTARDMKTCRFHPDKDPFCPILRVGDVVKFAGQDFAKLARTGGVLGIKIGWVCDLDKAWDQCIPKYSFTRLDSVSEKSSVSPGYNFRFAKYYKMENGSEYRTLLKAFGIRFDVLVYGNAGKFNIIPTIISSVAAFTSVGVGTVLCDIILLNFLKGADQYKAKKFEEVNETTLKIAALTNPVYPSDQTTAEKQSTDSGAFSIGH
Protocol: Cellular In Vitro Assay for Determination of P2X3 Receptor Activity
The determination of antagonistic activity at the P2X3 receptor of the compounds of the invention was performed by use of a recombinant cell line. These cell line derives originally from the Chinese hamster ovary (CHO) cell line (Tjio J. H.; Puck T. T., 1958, J. Exp. Med. 108: 259-271). The cell line is stably transfected with the human P2X3 receptor and a calcium-sensitive photoprotein, mitochondrial photina, which, after reconstitution with the cofactor coelenterazine, emits light in dependence of calcium binding [Bovolenta S, Foti M, Lohmer S, Corazza S., J Biomol Screen. 2007 August; 12(5):694-704]. The strength of the photina luminescence signal corresponds to the level of receptor activation upon agonist binding. An inhibitor would decrease the signal depending on its potency and concentration. Bioluminescence was detected using a suitable luminometer [Milligan G, Marshall F, Rees S, Trends in Pharmacological Sciences 17, 235-237 (1996)].
On the day before the assay, the cells are plated out in culture medium (DMEM/F12 (PAN, P04-41451), 10% FCS) in 384-well microtiter plates and kept in a cell incubator (96% humidity, 5% v/v CO2, […]). On the day of the assay medium is replaced by 2 mM Ca-tyrode buffer (20 mM HEPES, 130 mM NaCl, 5 mM KCl, 5 mM NaHCO3, 2 mM MgCl2, pH 7.4) containing 5 μg/ml coelenterazine. Plates are incubated for 3 hours at 37° C. (96% humidity, 5% v/v CO2). After incubation the test substances in various concentrations are placed for 10 minutes in the wells of the microtiter plate before the agonist alpha-beta-methylene-ATP at EC50 concentration is added. The resulting light signal is measured immediately in the luminometer.
The examples were tested in quadruples per plate and mean values were used to determine IC50 values at the human P2X3 receptors and percentage of maximal inhibition.

Row | Compound | CLblood [1] | metabolic stability compared to example 11 of WO2016/091776 A1 [1] | Fmax [1] | solubility at 24 h [2] | solubility compared to example 11 of WO2016/091776 A1 [2] | IC50 (human P2X3 receptor)
1 | Cc1cnc(-c2cc(O[C@@H](CO)CCO)cc(C(=O)N[C@H](C)c3cnc(C(F)(F)F)nc3)c2)s1 [Example 2, 3-{[(2R)-1,4-dihydroxybutan-2-yl]oxy}-5-(5-methyl-1,3-thiazol-2-yl)-N-{(1R)-1-[2-(trifluoromethyl)pyrimidin-5-yl]ethyl}benzamide] | 0.017 mL/min/kg | significantly improved metabolic stability | 100% | 96.5 µg/mL (≈ 194 µM) | significantly improved solubility | 5.1 nM
2 | Cc1cnc(-c2cc(O[C@@H](CO)CC(=O)O)cc(C(=O)N[C@H](C)c3cnc(C(F)(F)F)nc3)c2)s1 [Example 3, (3R)-4-hydroxy-3-[3-(5-methyl-1,3-thiazol-2-yl)-5-({(1R)-1-[2-(trifluoromethyl)-pyrimidin-5-yl]ethyl}carbamoyl)phenoxy]butanoic acid] | 0.017 mL/min/kg | significantly improved metabolic stability | 100% | 1190 µg/mL (≈ 2330 µM) | significantly improved solubility | 12 nM
3 | Cc1cnc(-c2cc(O[C@@H]3CCOC3)cc(C(=O)N[C@H](C)c3cnc(C(F)(F)F)nc3)c2)s1 [example 11 of WO2016/091776 A1, 3-(5-Methyl-1,3-thiazol-2-yl)-5-[(3R)-tetrahydrofuran-3-yloxy]-N-{(1R)-1-[2-(trifluoro-methyl)pyrimidin-5-yl]ethyl}benzamide, reference compound] | 8.67 mL/min/kg and 4.5 mL/min/kg |  | 61% and 79% | 2.9 µg/mL (≈ 6.06 µM) |  | 
4 | {[(3R,5R)-5-Hydroxytetrahydrofuran-3-yl]oxy}-5-(5-methyl-1,3-thiazol-2-yl)-N-{(1R)-1-[2-(trifluoromethyl)pyrimidin-5-yl]ethyl}benzamide and {[(3R,5S)-5-hydroxytetrahydrofuran-3-yl]oxy}-5-(5-methyl-1,3-thiazol-2-yl)-N-{(1R)-1-[2-(trifluoromethyl)pyrimidin-5-yl]ethyl}benzamide [Example 1] | 14.5 mL/min/kg |  | 34% |  |  | 20 nM
